The values that follow come from patent US12084444B2, “Spiro-lactam NMDA modulators and methods of using same” (Tenacia Biotechnology (Hong Kong) Co., Limited, priority 2016, dated 2024).

Common to all, as to assay type: biochemical
For test [1], the target named is T1, NMDAR2B expressing HEK cell membranes (Homo sapiens, UniProt Q05586+Q13224).
T1 construct: expressed in transfected cells; host or cells: HEK cells (membrane extract)
The experiment in a line: NMDAR agonist assay, [3H]MK-801 binding, NMDAR2B. On the set-up: key to NMDAR2B B: log EC50: 0=−; ≥1×10^−9 M (e.g., −8)=+; <1×10^−9 M (e.g., −10)=++. Conditions: 50 μM glutamate; for EC50: read-out: NMDAR2B B: log EC50 (converted); for Emax: 0.25 h, read-out: NMDAR2B A: % maximal [3H]MK-801 binding relative to 1 mM glycine. On the procedure:
(§1) Assays were conducted as described by Moskal et al., “GLYX-13: a monoclonal antibody-derived peptide that acts as an N-methyl-D-aspartate receptor modulator,” Neuropharmacology, 49, 1077-87, 2005. These studies were designed to determine if the test compounds act to facilitate NMDAR activation in NMDAR2A, NMDAR2B, NMDAR2C or NMDAR2D expressing HEK cell membranes as measured by increases in [^3H]MK-801 binding.
(§2) In the assay, 300 μg of NMDAR expressing HEK cell membrane extract protein was preincubated for 15 minutes at 25° C. in the presence of saturating concentrations of glutamate (50 μM) and varying concentrations of test compound (1×10^−15 M-1×10^−7 M), or 1 mM glycine. Following the addition of 0.3 μCi of [^3H]MK-801 (22.5 Ci/mmol), reactions were again incubated for 15 minutes at 25° C. (nonequilibrium conditions). Bound and free [^3H]MK-801 were separated via rapid filtration using a Brandel apparatus.
(§3) In analyzing the data, the DPM (disintegrations per minute) of [^3H]MK-801 remaining on the filter were measured for each concentration of test compound or for 1 mM glycine. The DPM values for each concentration of a ligand (N=2) were averaged. The baseline value was determined from the best fit curve of the DPM values modeled using the GraphPad program and the log(agonist) vs. response(three parameters) algorithm was then subtracted from all points in the dataset. The % maximal [^3H]MK-801 binding was then calculated relative to that of 1 mM glycine: all baseline subtracted DPM values were divided by the average value for 1 mM glycine. The EC50 and % maximal activity were then obtained from the best fit curve of the % maximal [^3H]MK-801 binding data modelled using the GraphPad program and the log(agonist) vs. response(three parameters) algorithm.
(§4) The tables below summarize the results for the wild type NMDAR agonists NMDAR2A, NMDAR2B, NMDAR2C, and NMDAR2D, and whether the compound is not an agonist (−), is an agonist (+), or is a strong agonist (++), where column A is based on the % maximal [^3H]MK-801 binding relative to 1 mM glycine (−=0; <100%=+; and >100%=++); and column B is based on log EC50 values (0=−; ≥1×10^−9 M (e.g., −8)=+; and <1×10^−9 M (e.g., −10)=++).

For test [2], the target named is T2, NMDAR2A expressing HEK cell membranes (Homo sapiens, UniProt Q12879).
T2 construct: expressed in transfected cells; host or cells: HEK cells (membrane extract)
The experiment in a line: NMDAR agonist assay, [3H]MK-801 binding, NMDAR2A. Conditions: 50 μM glutamate. On the set-up: key to NMDAR2A B: log EC50: 0=−; ≥1×10^−9 M (e.g., −8)=+; <1×10^−9 M (e.g., −10)=++. On the procedure:
as §1, §2, §3, §4

Test [3] concerns the target T3, NMDAR2A expressing HEK cell membranes (Homo sapiens, UniProt Q05586+Q12879).
T3 construct: expressed in transfected cells; host or cells: HEK cells (membrane extract)
The experiment in a line: NMDAR agonist assay, [3H]MK-801 binding, NMDAR2A. On the set-up: key to NMDAR2A B: log EC50: 0=−; ≥1×10^−9 M (e.g., −8)=+; <1×10^−9 M (e.g., −10)=++. Conditions: 50 μM glutamate; for Emax: 0.25 h, read-out: NMDAR2A A: % maximal [3H]MK-801 binding relative to 1 mM glycine; for EC50: read-out: NMDAR2A B: log EC50 (converted). On the procedure: as §1, §2, §3, §4

The target in test [4] is T4, NMDAR2B expressing HEK cell membranes (Homo sapiens, UniProt Q13224).
T4 construct: expressed in transfected cells; host or cells: HEK cells (membrane extract)
Description: NMDAR agonist assay, [3H]MK-801 binding, NMDAR2B. On the set-up: key to NMDAR2B B: log EC50: 0=−; ≥1×10^−9 M (e.g., −8)=+; <1×10^−9 M (e.g., −10)=++. Conditions: 50 μM glutamate. On the procedure:
as §1, §2, §3, §4

Molecules are shown by their SMILES.

T1 sequence (Q13224 27-1484, other chains not shown): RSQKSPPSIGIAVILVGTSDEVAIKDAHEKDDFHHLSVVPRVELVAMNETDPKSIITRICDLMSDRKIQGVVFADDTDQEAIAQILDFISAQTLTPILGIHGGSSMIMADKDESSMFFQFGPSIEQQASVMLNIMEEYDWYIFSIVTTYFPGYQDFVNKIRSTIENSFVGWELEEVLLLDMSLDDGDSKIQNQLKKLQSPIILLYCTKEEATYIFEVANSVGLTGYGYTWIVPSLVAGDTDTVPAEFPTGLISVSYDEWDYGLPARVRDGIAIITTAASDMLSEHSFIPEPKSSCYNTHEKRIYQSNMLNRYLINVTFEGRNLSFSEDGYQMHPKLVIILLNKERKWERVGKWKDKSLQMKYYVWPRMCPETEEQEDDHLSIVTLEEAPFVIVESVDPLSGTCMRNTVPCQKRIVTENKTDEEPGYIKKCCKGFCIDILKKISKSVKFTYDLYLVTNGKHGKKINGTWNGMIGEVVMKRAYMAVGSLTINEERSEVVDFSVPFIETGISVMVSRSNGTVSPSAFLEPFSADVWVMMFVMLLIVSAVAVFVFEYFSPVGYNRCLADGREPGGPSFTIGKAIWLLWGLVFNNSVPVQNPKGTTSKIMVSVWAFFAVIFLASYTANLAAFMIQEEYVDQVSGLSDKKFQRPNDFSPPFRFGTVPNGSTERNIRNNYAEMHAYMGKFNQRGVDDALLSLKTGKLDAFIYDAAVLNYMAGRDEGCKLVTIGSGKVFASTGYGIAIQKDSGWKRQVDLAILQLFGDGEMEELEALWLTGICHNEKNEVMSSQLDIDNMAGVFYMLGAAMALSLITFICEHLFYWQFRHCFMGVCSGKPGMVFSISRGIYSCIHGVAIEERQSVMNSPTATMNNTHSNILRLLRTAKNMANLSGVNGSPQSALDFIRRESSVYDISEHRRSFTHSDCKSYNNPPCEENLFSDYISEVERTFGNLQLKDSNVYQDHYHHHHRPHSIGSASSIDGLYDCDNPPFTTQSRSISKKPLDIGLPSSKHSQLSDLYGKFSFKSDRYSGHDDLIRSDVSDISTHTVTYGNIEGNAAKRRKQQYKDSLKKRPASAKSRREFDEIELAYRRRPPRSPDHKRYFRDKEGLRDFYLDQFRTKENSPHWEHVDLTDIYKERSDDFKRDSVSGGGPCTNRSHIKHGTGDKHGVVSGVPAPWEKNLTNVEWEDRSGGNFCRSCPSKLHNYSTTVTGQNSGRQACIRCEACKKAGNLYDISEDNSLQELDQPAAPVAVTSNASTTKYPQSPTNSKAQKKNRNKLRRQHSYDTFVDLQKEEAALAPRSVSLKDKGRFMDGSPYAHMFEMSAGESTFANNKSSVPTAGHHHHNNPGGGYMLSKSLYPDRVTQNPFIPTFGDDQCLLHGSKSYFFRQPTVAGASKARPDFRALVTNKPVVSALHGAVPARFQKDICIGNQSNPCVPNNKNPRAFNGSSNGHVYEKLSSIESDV
T3 sequence (Q12879 23-1464, other chains not shown): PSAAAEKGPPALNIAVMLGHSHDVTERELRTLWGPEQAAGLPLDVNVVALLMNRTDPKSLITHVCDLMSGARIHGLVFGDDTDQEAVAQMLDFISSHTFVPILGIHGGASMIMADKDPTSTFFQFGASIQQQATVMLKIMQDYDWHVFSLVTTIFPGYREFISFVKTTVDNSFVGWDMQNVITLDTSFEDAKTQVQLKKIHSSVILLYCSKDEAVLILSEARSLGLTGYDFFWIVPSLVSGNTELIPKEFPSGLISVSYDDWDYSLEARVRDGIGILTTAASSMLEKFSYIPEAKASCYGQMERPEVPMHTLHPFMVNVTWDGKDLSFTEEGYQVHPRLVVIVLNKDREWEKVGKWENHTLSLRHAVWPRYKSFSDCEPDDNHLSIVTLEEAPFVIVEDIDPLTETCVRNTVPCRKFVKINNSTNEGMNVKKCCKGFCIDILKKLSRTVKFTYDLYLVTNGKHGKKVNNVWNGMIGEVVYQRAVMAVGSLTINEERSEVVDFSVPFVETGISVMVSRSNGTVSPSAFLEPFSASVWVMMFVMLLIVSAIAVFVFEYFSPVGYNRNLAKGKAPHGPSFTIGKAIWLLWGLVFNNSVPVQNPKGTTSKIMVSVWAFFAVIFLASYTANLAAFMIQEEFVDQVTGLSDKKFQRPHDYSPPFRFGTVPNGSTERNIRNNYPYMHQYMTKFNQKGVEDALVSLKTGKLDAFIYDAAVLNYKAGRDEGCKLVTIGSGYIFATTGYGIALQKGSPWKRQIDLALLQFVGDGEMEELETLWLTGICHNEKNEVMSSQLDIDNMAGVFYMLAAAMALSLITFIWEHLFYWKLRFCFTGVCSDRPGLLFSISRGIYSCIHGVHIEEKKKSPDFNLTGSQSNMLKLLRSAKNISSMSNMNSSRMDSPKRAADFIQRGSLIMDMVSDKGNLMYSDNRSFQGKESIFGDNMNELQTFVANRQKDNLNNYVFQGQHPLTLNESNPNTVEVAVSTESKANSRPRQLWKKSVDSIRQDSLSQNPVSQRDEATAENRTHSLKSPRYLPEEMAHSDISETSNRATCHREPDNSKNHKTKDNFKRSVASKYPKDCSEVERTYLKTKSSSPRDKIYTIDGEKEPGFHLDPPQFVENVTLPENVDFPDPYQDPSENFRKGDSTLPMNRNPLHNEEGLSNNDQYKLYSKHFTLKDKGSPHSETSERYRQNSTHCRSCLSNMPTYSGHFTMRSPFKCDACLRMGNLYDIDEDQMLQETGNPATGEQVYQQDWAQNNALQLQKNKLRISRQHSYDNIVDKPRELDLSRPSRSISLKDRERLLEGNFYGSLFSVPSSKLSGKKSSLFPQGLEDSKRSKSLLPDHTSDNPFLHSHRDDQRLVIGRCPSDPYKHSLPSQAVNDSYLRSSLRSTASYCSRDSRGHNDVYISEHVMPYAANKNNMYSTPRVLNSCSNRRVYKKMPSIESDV
T2 sequence (Q12879 23-1464, other chains not shown): as above

As usually defined, the EC50 is the concentration needed to bring the measured effect to its halfway point. As for `CC1CC(=O)N(c2ccc(F)cc2)C12CN(Cc1ccccc1)C2=O` (single isomer, unassigned) [BX, 2-benzyl-5-(4-fluorophenyl)-8-methyl-2,5-diazaspiro[3.4]octane-1,6-dione], in test [1], the EC50 is below 1 nM and the Emax was below 100%. Moreover, the “NMDAR2A B: log EC50” value in test [2] is listed as “−”. Further, the Emax in test [3] was determined as 0%.
Taken in the same sequence, the figures for `CC1CC(=O)N(c2ccc(F)cc2)C12CN(CC(N)=O)C2=O` (single isomer, unassigned) [CF, 2-(5-(4-fluorophenyl)-8-methyl-1,6-dioxo-2,5-diazaspiro[3.4]octan-2-yl)acetamide] were below 1 nM, below 100%, “−” and 0%.
The like results for `CC1C(N)C(=O)N(C)C12CN(Cc1ccccc1)C2=O` (single isomer, unassigned) [CG, 7-amino-2-benzyl-5,8-dimethyl-2,5-diazaspiro[3.4]octane-1,6-dione] were, in that order, below 1 nM, below 100%, “−” and 0%.
Consider `COc1ccc(CN2CC3(CCNC(=S)C3)C2=O)cc1` (single isomer, unassigned) [CN, 2-(4-methoxybenzyl)-6-thioxo-2,7-diazaspiro[3.5]nonan-1-one], for which, in test [1], the EC50 was below 1 nM and the Emax was below 100%. Moreover, in test [3], the EC50 is below 1 nM and the Emax is below 100%.
With `COc1ccc(CN2CC3(CCNC(=S)C3)C2=S)cc1` (single isomer, unassigned) [CO, 2-(4-methoxybenzyl)-2,7-diazaspiro[3.5]nonane-1,6-dithione], in test [4], the “NMDAR2B A: % maximal [3H]MK-801 binding relative to 1 mM glycine” value is given as “− (−=0)” and the “NMDAR2B B: log EC50” value was “−”. For the same molecule, in test [3], the concentration giving a half-maximal response (EC50) was below 1 nM and the Emax is below 100%.
For `O=C1CC2(CCN1)CN(Cc1ccccc1)C2=O` (single isomer, unassigned) [CU, 2-benzyl-2,7-diazaspiro[3.5]nonane-1,6-dione], in test [1], the EC50 is below 1 nM and the Emax is below 100%. For the same molecule, in test [2], the “NMDAR2A A: % maximal [3H]MK-801 binding relative to 1 mM glycine” value is “− (−=0)” and the “NMDAR2A B: log EC50” value is listed as “−”.
As to `CN1CCC2(CC1=O)CN(Cc1ccccc1)C2=O` (single isomer, unassigned) [CW, 2-benzyl-7-methyl-2,7-diazaspiro[3.5]nonane-1,6-dione], in test [1], the EC50 is below 1 nM and the Emax is above 100%. Besides, in test [3], the EC50 is below 1 nM and the Emax was below 100%.
Regarding `CNC(=O)[C@H]([C@@H](C)O)N1CC2(CCNC(=O)C2)C1=O` (single isomer, unassigned) [DB], in test [1], the EC50 was below 1 nM and the Emax was above 100%. Besides, the “NMDAR2A B: log EC50” value in test [2] is recorded as “−”. For the same molecule, the Emax in test [3] is 0%.
With `NC(=O)CN1CC2(CCNC(=O)C2)C1=O` (single isomer, unassigned) [DC, 2-(1,6-dioxo-2,7-diazaspiro[3.5]nonan-2-yl)acetamide], in test [1], the EC50 is below 1 nM and the Emax is below 100%. In test [2], the “NMDAR2A A: % maximal [3H]MK-801 binding relative to 1 mM glycine” value was “+ (<100%=+)”. For the same molecule, the EC50 in test [3] is below 1 nM.
Turning to `CC(C)CN1CC2(CCNC(=O)C2)C1=O` (single isomer, unassigned) [DE, 2-isobutyl-2,7-diazaspiro[3.5]nonane-1,6-dione], in test [1], the EC50 was below 1 nM and the Emax is below 100%. For the same molecule, in test [3], the EC50 is below 1 nM and the Emax was below 100%.
Take `CC1CC(=O)N(C)C12CN(CC(N)=O)C2=O` (single isomer, unassigned) [DI, 2-(5,8-dimethyl-1,6-dioxo-2,5-diazaspiro[3.4]octan-2-yl)acetamide]: the EC50 in test [1] and in test [3] was below 1 nM each time. In test [1], the Emax is below 100%. Further, in test [2], the “NMDAR2A A: % maximal [3H]MK-801 binding relative to 1 mM glycine” value is “+ (<100%=+)”.
